This assay has as its target T1, IKZF2 (Homo sapiens, UniProt Q96SW2+Q9UKS7).
T1 construct: CRISPR/Cas9—mediated insertion of the HiBiT peptide tag (Promega™) to the N-terminus of the IKZF2 gene locus; endogenous in cells; host or cells: MOLT4 cells, with CRISPR/Cas9 knock-in of HiBiT at the endogenous IKZF2 locus
The assay can be described thus: HiBit-IKZF2 assay (HiBiT-Helios degradation in MOLT4 cells). It is filed as cell-based. The conditions noted are these: for Dmax: MOLT-4, extent of degradation from highest to lowest concentration, 10 μM to 0.00026 μM, read-out: Dmax; for DC50: concentration at which 50% of HiBiT-Helios degradation was achieved. In outline:
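MOLT4 cells carried an endogenous N-terminal HiBiT tag on IKZF2, knocked in by CRISPR. Cells were treated in triplicate at 13 concentrations (10 μM–0.00026 μM), and remaining HiBiT-Helios was read by lytic luminescence at set timepoints. Data were normalized to DMSO to give the 50% degradation concentration, with Dmax taken from the luminescence range.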

T1 sequence (Q9UKS7 whole entry): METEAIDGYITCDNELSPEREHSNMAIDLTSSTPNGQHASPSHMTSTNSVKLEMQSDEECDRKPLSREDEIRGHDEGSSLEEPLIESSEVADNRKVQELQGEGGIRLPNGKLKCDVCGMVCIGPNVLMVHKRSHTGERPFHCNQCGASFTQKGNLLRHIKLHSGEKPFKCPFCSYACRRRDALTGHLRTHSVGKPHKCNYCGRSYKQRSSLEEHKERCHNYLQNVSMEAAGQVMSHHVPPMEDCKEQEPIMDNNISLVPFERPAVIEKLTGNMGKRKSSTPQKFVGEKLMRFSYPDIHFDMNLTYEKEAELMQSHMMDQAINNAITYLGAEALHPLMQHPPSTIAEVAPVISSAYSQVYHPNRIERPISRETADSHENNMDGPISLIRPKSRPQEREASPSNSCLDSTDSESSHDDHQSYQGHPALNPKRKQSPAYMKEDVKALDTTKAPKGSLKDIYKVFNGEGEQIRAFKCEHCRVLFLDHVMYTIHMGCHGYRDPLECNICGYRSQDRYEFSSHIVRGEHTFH
T1 sequence (Q96SW2 whole entry): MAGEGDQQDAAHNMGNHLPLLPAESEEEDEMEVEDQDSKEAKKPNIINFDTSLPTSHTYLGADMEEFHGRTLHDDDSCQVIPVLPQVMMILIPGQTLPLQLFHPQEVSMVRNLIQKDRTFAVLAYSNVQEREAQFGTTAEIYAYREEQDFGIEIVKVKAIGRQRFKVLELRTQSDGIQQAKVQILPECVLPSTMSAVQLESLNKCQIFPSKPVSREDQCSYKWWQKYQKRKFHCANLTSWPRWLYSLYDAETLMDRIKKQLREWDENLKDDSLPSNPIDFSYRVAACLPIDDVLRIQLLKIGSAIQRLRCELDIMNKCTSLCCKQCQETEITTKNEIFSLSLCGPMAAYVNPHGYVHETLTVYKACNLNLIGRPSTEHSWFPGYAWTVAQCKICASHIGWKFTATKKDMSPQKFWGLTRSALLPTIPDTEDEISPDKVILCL
T1 sequence (Q16531 whole entry partner): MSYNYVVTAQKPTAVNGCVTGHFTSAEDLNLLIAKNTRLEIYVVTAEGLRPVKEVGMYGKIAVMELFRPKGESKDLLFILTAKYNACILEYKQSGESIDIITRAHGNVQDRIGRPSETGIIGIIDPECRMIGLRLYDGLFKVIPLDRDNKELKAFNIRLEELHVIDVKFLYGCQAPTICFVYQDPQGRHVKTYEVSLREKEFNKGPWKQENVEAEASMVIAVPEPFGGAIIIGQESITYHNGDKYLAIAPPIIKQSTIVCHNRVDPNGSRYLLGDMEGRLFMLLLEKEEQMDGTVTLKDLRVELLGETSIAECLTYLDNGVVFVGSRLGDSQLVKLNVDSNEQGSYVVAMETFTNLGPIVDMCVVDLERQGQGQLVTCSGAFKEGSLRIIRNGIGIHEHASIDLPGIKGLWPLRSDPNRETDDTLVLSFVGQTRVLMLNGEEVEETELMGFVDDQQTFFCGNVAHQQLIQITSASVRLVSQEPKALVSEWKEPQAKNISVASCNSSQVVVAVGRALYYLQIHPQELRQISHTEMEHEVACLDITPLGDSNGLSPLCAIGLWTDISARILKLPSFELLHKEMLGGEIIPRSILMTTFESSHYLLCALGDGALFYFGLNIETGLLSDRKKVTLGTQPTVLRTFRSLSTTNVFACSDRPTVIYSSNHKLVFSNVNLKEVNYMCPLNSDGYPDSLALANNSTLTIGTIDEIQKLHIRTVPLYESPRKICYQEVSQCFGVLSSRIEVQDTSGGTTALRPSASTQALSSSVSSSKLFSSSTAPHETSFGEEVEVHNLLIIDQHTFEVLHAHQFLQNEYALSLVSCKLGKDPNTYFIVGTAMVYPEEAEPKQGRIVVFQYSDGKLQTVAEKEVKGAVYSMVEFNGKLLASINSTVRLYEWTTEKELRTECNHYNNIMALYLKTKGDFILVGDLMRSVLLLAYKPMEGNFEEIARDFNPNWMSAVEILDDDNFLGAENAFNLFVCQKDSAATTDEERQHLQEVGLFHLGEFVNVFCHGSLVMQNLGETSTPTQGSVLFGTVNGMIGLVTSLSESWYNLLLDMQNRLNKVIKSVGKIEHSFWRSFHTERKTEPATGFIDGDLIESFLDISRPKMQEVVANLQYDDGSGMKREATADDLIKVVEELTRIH

By Dmax is commonly meant the greatest extent of degradation seen. As a reminder, the DC50 is the concentration giving 50% degradation. A low value points to degradation at low concentration. For `O=C1CCC(N2Cc3cc(C4(O)CCN(Cc5cccc(F)c5Cl)CC4)ccc3C2=O)C(=O)N1` (stereo not drawn) [Compound 254], the Dmax was above 70% and the DC50 is below 10 nM.
`O=C1CCC(N2Cc3cc(C4(O)CCN(Cc5ccc(F)c(Cl)c5)CC4)ccc3C2=O)C(=O)N1` (stereo not drawn) [Compound 255]: the Dmax was above 70% and the DC50 is below 10 nM.
Taken in the same sequence, the figures for `O=C1CCC(N2Cc3cc(C4(O)CCN(Cc5ccccc5F)CC4)ccc3C2=O)C(=O)N1` (stereo not drawn) [Compound 256] were above 70% and below 10 nM.
For `O=C1CCC(N2Cc3cc(C4(O)CCN(Cc5cccc(F)c5)CC4)ccc3C2=O)C(=O)N1` (stereo not drawn) [Compound 257], in that order: above 70% and below 10 nM.
For `O=C1CCC(N2Cc3cc(C4(O)CCN(Cc5ccc(F)cc5)CC4)ccc3C2=O)C(=O)N1` (stereo not drawn) [Compound 258], in that order: above 70% and below 10 nM.
`O=C1CCC(N2Cc3cc(C4(O)CCN(Cc5nc6ccccc6s5)CC4)ccc3C2=O)C(=O)N1` (stereo not drawn) [Compound 260]: the Dmax lay within 50 to 70% and the DC50 lay within 10 to 30 nM.
Taken in the same sequence, the figures for `COc1cccc(CN2CCC(O)(c3ccc4c(c3)CN(C3CCC(=O)NC3=O)C4=O)CC2)c1` (stereo not drawn) [Compound 261] were above 70% and below 10 nM.
In the case of `COc1ccc(CN2CCC(O)(c3ccc4c(c3)CN(C3CCC(=O)NC3=O)C4=O)CC2)cc1` (stereo not drawn) [Compound 262], the Dmax fell in the range of 50 to 70% and the DC50 is 10 to 30 nM.
With `COc1ccccc1CN1CCC(O)(c2ccc3c(c2)CN(C2CCC(=O)NC2=O)C3=O)CC1` (stereo not drawn) [Compound 263], the Dmax was above 70% and the DC50 is below 10 nM.
For the molecule `Cc1cccc(CN2CCC(O)(c3ccc4c(c3)CN(C3CCC(=O)NC3=O)C4=O)CC2)c1` (stereo not drawn) [Compound 264], the Dmax is above 70% and the DC50 is below 10 nM.
For `Cc1ccccc1CN1CCC(O)(c2ccc3c(c2)CN(C2CCC(=O)NC2=O)C3=O)CC1` (stereo not drawn) [Compound 265], in that order: above 70% and below 10 nM.
Taken in the same sequence, the figures for `Cc1ccc(CN2CCC(O)(c3ccc4c(c3)CN(C3CCC(=O)NC3=O)C4=O)CC2)cc1` (stereo not drawn) [Compound 266] were above 70% and below 10 nM.
Taken in the same sequence, the figures for `O=C1CCC(N2Cc3cc(C4(O)CCN(Cc5ccccc5Cl)CC4)ccc3C2=O)C(=O)N1` (stereo not drawn) [Compound 267] were above 70% and below 10 nM.
On to `O=C1CCC(N2Cc3cc(C4(O)CCN(Cc5ccc(Cl)cc5)CC4)ccc3C2=O)C(=O)N1` (stereo not drawn) [Compound 268], for which the greatest degradation seen (Dmax) was above 70% and the DC50 is below 10 nM.
Taken in the same sequence, the figures for `CC(c1ccccc1)N1CCC(O)(c2ccc3c(c2)CN(C2CCC(=O)NC2=O)C3=O)CC1` (stereo not drawn) [Compound 269] were above 70% and below 10 nM.
Taken in the same sequence, the figures for `O=C1CCC(N2Cc3cc(C4(O)CCN(Cc5ccc(C6CC6)cc5)CC4)ccc3C2=O)C(=O)N1` (stereo not drawn) [Compound 270] were above 70% and below 10 nM.
For `O=C1CCC(N2Cc3cc(C4(O)CCN(Cc5ccc6c(c5)OC(F)(F)O6)CC4)ccc3C2=O)C(=O)N1` (stereo not drawn) [Compound 271], in that order: above 70% and below 10 nM.
Take `O=C1CCC(N2Cc3cc(C4(O)CCN(Cc5ccc6c(c5)OCCCO6)CC4)ccc3C2=O)C(=O)N1` (stereo not drawn) [Compound 272]: the Dmax was above 70% and the DC50 is below 10 nM.
Taken in the same sequence, the figures for `O=C1CCC(N2Cc3cc(C4(O)CCN(Cc5cccc(-c6ccccc6)c5)CC4)ccc3C2=O)C(=O)N1` (stereo not drawn) [Compound 273] were above 70% and below 10 nM.
Consider `O=C1CCC(N2Cc3cc(C4(O)CCN(Cc5ccccc5-c5ccccc5)CC4)ccc3C2=O)C(=O)N1` (stereo not drawn) [Compound 274], for which the Dmax lay in the range of 50 to 70% and the DC50 is below 10 nM.
Consider `O=C1CCC(N2Cc3cc(C4(O)CCN(Cc5ccc6c(c5)CCCO6)CC4)ccc3C2=O)C(=O)N1` (stereo not drawn) [Compound 275], for which the Dmax was above 70% and the 50% degradation concentration (DC50) was below 10 nM.
Take `O=C1CCC(N2Cc3cc(C4(O)CCN(Cc5ccccc5OCc5ccccc5)CC4)ccc3C2=O)C(=O)N1` (stereo not drawn) [Compound 276]: the Dmax lay within 50 to 70% and the DC50 was below 10 nM.
Taken in the same sequence, the figures for `O=C1CCC(N2Cc3cc(C4(O)CCN(Cc5cccc(OCc6ccccc6)c5)CC4)ccc3C2=O)C(=O)N1` (stereo not drawn) [Compound 277] were above 70% and below 10 nM.
Taken in the same sequence, the figures for `Cc1ccc(C)n1-c1ccc(CN2CCC(O)(c3ccc4c(c3)CN(C3CCC(=O)NC3=O)C4=O)CC2)cc1` (stereo not drawn) [Compound 278] were above 70% and 10 to 30 nM.
Taken in the same sequence, the figures for `O=C1CCC(N2Cc3cc(C4(O)CCN(Cc5ccc6ncccc6c5)CC4)ccc3C2=O)C(=O)N1` (stereo not drawn) [Compound 279] were above 70% and below 10 nM.
For the molecule `O=C1CCC(N2Cc3cc(C4(O)CCN(Cc5cccc6cccnc56)CC4)ccc3C2=O)C(=O)N1` (stereo not drawn) [Compound 280], the Dmax was above 70% and the DC50 was in the range of 10 to 30 nM.
For the molecule `O=C1CCC(N2Cc3cc(C4(O)CCN(Cc5cccc(-c6nccs6)c5)CC4)ccc3C2=O)C(=O)N1` (stereo not drawn) [Compound 281], the Dmax is above 70% and the DC50 was below 10 nM.

The values are drawn from patent publication US20230002397A1, “SMALL MOLECULE DEGRADERS OF HELIOS AND METODS OF USE” (DANA-FARBER CANCER INSTITUTE, INC., priority 2019, published 2023).
